Key:
[1] = system: CD4^+T cells from small intestine lamina propria and spleen; assay: Oral Listeria monocytogenes infection (and naïve mice) treated with RA or LE540: IL-17^+ and Foxp3^+ CD4 T cells; type: in vivo, mouse
Text: Listeria monocytogenes (strain WT LMOVA) was used. Mice were orally infected (gavage) with 5×10^8 CFU of L. monocytogenes. Mice received i.p. injections of vehicle, RA or LE540 on the same day and 2 days after infection. Mice were sacrificed 5 days post-infection for analysis.
Every second day, in a interval of two weeks, naïve mice received gavage of either vehicle, RA or LE540.
Liver lymphocytes were isolated using 37.5% isotonic Percoll (GE Healthcare, USA), as previously described [Y. Kinjo et al, Nat Immunol 7, 978 (2006)]. Intestinal lymphocytes were isolated and prepared as previously described [Aranda et al., J Immunol 158, 3464 (1997)]. Briefly, small and large intestines were removed and placed in chilled HBSS media containing 5% FCS. The intestines were carefully cleaned from the mesentery and flushed of fecal content. Intestines were opened longitudinally and then cut into 1 cm pieces. The intestinal tissue was transferred to a 250-ml Erlenmeyer flasks containing 25 ml of preheated HBSS complemented with 2% FCS and 1 mM DTT (Sigma, USA) and shaken at 200 rpm for 40 min at 37° C. The tissue suspension was passed through a stainless steel sieve into 50-ml conical tubes and the cells were pelleted by centrifugation at 1200 rpm for 10 min at 4° C. The cell pellet was resuspended in complete HBSS, layered over a discontinuous 40/70% Percoll gradient, and centrifuged at 2000 rpm for 30 min. Cells from the 40/70% interface were collected, washed and resuspended in complete RPMI media. These purified cells constituted the intraepithelial lymphocyte (IEL) population. To isolate the lamina propria lymphocytes (LPL), the remaining intestinal tissue in the stainless steel sieve was minced and transferred to conical tubes. The minced pieces were resuspended in 20 ml of complete RPMI containing 1 mg/ml of collagenase (Sigma, USA) and shaken at 200 rpm for 40 min at 37° C. The tissue suspension was collected and passed through a 70 μm cell strainer and the cells were pelleted by centrifugation at 1200 rpm. The cells were then resuspended and layered onto a 40/70% Percoll gradient, centrifugated and processed as described above for the IEL preparation.
(§1) To block non-specific staining, the 2.4G2 anti-CD16/32 antibody was added. […] For intracellular cytokine staining, cells obtained from in vitro cultures or isolated IELs were incubated for 4-5 hours with 50 ng/ml PMA, 750 ng/ml Ionomycin (both Sigma, USA) and 10 μg/ml Brefeldin A (Invitrogen, USA) in a tissue culture incubator at 37° C.
For Foxp3 staining, no stimulation with PMA/Ionomycin was performed, with the exceptions of FIGS. 8B and 9A. In these cases, the time of incubation with PMA/Ion was reduced to 3.5 hours. Intracellular Foxp3 staining was performed as per the eBioscience's Foxp3-staining kit protocol.

[2] = system: CD4^+CD25^− spleen T cells; assay: Th-17 differentiation of CD4 T cells stimulated with dendritic cells or spleen APCs plus TGF-β and IL-6 (intracellular IL-17 staining, IL-17 ELISA); type: cell-based, mouse
Method: (§2) For CD4^+CD25^− T cell isolation, spleens were removed, teased into cell-single suspensions and filtered through a 70 μm cell strainer (Fisher Scientific, USA). CD4^+CD25^−T cells were isolated by negative selection after incubation with a mix of specific biotin-conjugated mAbs (anti-CD8, CD11b, CD11ε, CD25, CD45R (B220), NK1.1, and TER119) at 1/200 dilution, and anti-biotin magnetic microbeads (25-40 μl per spleen) (Miltenyi Biotec, USA).
(§3) For dendritic cells isolation, spleen and MLN were chopped and digested by collagenase type D (Roche, USA) for 30 min at room temperature. Digested tissues were treated with 5 mM of EDTA for additional 5 min and mashed through a 70 μm cell strainer. Subsequently, CD11c^+ cells were enriched by positive selection using anti-CD11c microbeads according to the manufacturer's protocol (Miltenyi Biotec, USA). Enriched populations were stained with CD45-APC, CD 11c-PE, I-A^b-FITC and TCR β and sorted for TCRβ^−CD45^+CD11c^+I-Ab^+ by flow cytometry using a FACS-DIVA cell sorter (USA).
(§4) The culture medium used for dendritic cell-T cell cultures was Iscove's modified Dulbecco medium (IMDM) (Gibco, USA) supplemented with 10% heat-inactivated FCS, 2 mM L-glutamine, 100 U/ml penicillin, 100 μg/ml streptomycin, and 5 mM β-mercaptoethanol (all Sigma, USA). […] For dendritic cell-T cell cultures, 2×10^4 dendritic cells and 1×10^5 T cells were cultured in a volume of 200 μl (96-well plates). For irradiated APC-T cell cultures, 5×10^5 APCs and 1×10^5 T cells were cultured in a volume of 200 μl in 96-well plates (2×10^6 APCs and 0.5×10^6 T cells per well in 48-well plates). […] For the study shown in FIG. 4A, after sorting of naive CD4^+ cells (CD25^−CD44^lowCD62L^+), cells were washed twice in PBS+0.1% BSA, counted and labeled with 2 μM of CFSE (Carboxyfluorescein diacetate, succinimidyl ester) (Molecular Probes, USA) at a concentration of 5−10×10^6 cells per ml in PBS-0.1% BSA.
To block non-specific staining, the 2.4G2 anti-CD16/32 antibody was added.

CD4^+CD25^−T cells = assay: TGF-β-dependent Foxp3 induction (Treg differentiation) in CD4 T cells with dendritic cells or APCs; type: cell-based, mouse
Method: as §2, §3, §4
(§5) For Foxp3 staining, no stimulation with PMA/Ionomycin was performed, with the exceptions of FIGS. 8B and 9A. […]

naïve CD4^+T cells = assay: Re-stimulation (secondary cultures) of in vitro differentiated CD4 T cells: Foxp3 and IL-17 staining; type: cell-based, mouse; conditions: cells first stimulated with TGF-β and IL-6, rested
Method: as §4, §1, §5

[3] = system: Polyclonal CD4^+CD25^− spleen T cells; assay: APC-free Th-17 generation (anti-CD3/CD28 beads, IL-17 cond.: TGF-β, IL-6, IL-1β, TNF-α); type: cell-based, mouse
Method: as §4, §1

CC1=C(/C=C/C(C)=C/C=C/C(C)=C/C(=O)O)C(C)(C)CCC1 [RA, All-trans retinoic acid]
Th-17 mucosal T cells (IL-17 staining of CD4^+T cells, small intestine lamina propria) ([1]; 5 days after oral L. monocytogenes infection, i.p. days 0 and 2, RA 300 μg/mouse, LE540 100 μg/mouse): measurable reduction
differentiation / number of mucosal Foxp3^+Treg cells (small intestine lamina propria) ([1]; Lm challenged mice, 5 days after oral infection): not found to measurably enhance
spleen Foxp3^+CD4 cells ([1]; Lm infected mice (2 i.p. injections) and naïve mice (2-week gavage)): No effect
antagonistic effect on IL-6 (Foxp3 versus IL-17) ([2]; TGF-β 5 ng/ml, varied concentrations of IL-6 and RA): dose dependent
Foxp3 / Th-17 differentiation of CD4 T cells under conditions that promote Th-17 differentiation ([2]; TNF-α, IL-1-β, TGF-β and IL-6 plus RA): converted to Foxp3^+ cells with a decrease in Th-17 differentiation
Th-17 differentiation by spleen dendritic cells ([2]; added to cultures with TGF-β and IL-6, 100 nM): inhibited the Th-17 differentiation by spleen dendritic cells
TGF-β-dependent Foxp3 induction by MLN dendritic cells (CD4^+CD25^−T cells; OT-II CD4 cells, OVAp, TGF-β1, LE135 1 μM, RA 100 nM): enhanced
TGF-β-dependent Foxp3 induction under low amounts of TGF-β (CD4^+CD25^−T cells; TGF-β 0.5 ng/ml, TCR-transgenic CD4 cells): still enhances
committed Th-17 cells in secondary cultures (naïve CD4^+T cells): also suppressed committed Th-17 cells
generation of IL-17^+ T cells under APC-free conditions [3]: also inhibited the generation of IL-17^+T cells
